In PubChem BioAssay (NCI):
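At the GI50, growth is halved. TGI denotes the concentration required for complete inhibition of growth.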

Legend:
Experiment in all cases: NCI anticancer screen, dose series, 384-well format
[1] = system: DU-145 prostate
[2] = system: OVCAR-4 ovarian
[3] = system: NCI-H322M lung
[4] = system: SK-MEL-5 melanoma
[5] = system: MCF7 breast
[6] = system: SK-OV-3 ovarian
[7] = system: SK-MEL-28 melanoma
[8] = system: SN12C renal
[9] = system: OVCAR-5 ovarian
[10] = system: HCT-116 colon
[11] = system: MDA-MB-231 breast
[12] = system: M14 melanoma
[13] = system: MDA-MB-435 melanoma

Structure (SMILES): CC(F)(F)c1cc(F)ccc1-c1sc2cc(O)ccc2c1Oc1ccc(/C=C/C(=O)O)cc1
- GI50 [1]: 17.4 µM
- TGI [1]: 42.3 µM
- GI50 [2]: 19.5 µM
- TGI [2]: 74.9 µM
- GI50 [3]: 14.4 µM
- TGI [3]: 33.6 µM
- GI50 [4]: 12.2 µM
- TGI [4]: 24.7 µM
- TGI [5]: 14 µM
- GI50 [6]: 20.2 µM
- TGI [6]: 43.5 µM
- GI50 [7]: 11.5 µM
- TGI [7]: 32.9 µM
- GI50 [8]: 20.1 µM
- TGI [8]: 40.5 µM
- GI50 [9]: 18.2 µM
- TGI [9]: 33.6 µM
- GI50 [10]: 15.6 µM
- TGI [10]: 30.5 µM
- GI50 [11]: 15.7 µM
- TGI [11]: 29.5 µM
- GI50 [12]: 11.6 µM
- TGI [12]: 25.8 µM
- GI50 [13]: 3.24 µM
- TGI [13]: 12.8 µM
